From patent US20110230558A1 (priority 2008, published 2011)

Experiments:
[1] = tested on: Serratia marcenses CECT 274; settings: Gram − bacteria; cited from earlier work
[2] = tested on: Listeria monocytogenes ATCC 7644; settings: Gram + bacteria; cited from earlier work
[3] = tested on: Aureobasidium pullulans ATCC 9348; settings: Fungi; cited from earlier work
[4] = tested on: Salmonella typhimurium ATCC 16028; settings: Gram − bacteria; cited from earlier work
[5] = tested on: Arthrobacter oxydans ATCC 8010; settings: Gram + bacteria; cited from earlier work
[6] = tested on: Clostridium perfringens ATCC 77454; settings: Gram + bacteria; cited from earlier work
[7] = tested on: Proteus mirabilis CECT 170; settings: Gram − bacteria; cited from earlier work
[8] = tested on: Escherichia coli ATCC 8739; settings: Gram − bacteria; cited from earlier work
[9] = tested on: Penicillium chrysogenum CECT 2802; settings: Fungi; cited from earlier work
[10] = tested on: Bacillus cereus var mycoide ATCC 11778; settings: Gram + bacteria; cited from earlier work
[11] = tested on: Candida albicans ATCC 10231; settings: Yeast; cited from earlier work
[12] = tested on: Pseudomonas aeruginosa ATCC 9027; settings: Gram − bacteria; cited from earlier work
[13] = tested on: Citrobacter freundii ATCC 22636; settings: Gram − bacteria; cited from earlier work
[14] = tested on: Human epithelial cell lines (KB); test: LPS-induced release of peptidases from human cell culture, fluorigenic substrate; assay type: cell-based; settings: for Peptidase released: LAE 2 μg/ml; for Peptidase released / reduction of the toxicity of LPS (measured by fluorescence release): KB cells
Experimental: Human epithelial cell lines (KB) were obtained from American Cell type collection and grown in BGJ medium (Gibco, Buffalo, N.Y.) at 37° C. with 5% CO2. The medium was supplemented with 5% heated calf serum. Cells were placed in 24 well dishes with 0.5 ml medium per well. The release of peptidases from the human cell lines in response to LPS was measured by a coumarin based fluorigenic substrate utilized to study eukaryotic enzymes that degrade extracellular matrix proteins (collagen and fibronectin) and inactivated by inhibitors of matrix of metalloprotease (Yang et al. Abstract 105 at the 105th ASM general meeting).
The release of peptidase was measured by sensitive fluorescence test.

[15] = tested on: Rhodotorula rubra CECT 1158; settings: Yeast; cited from earlier work
[16] = tested on: Aspergillus niger ATCC 14604; settings: Fungi; cited from earlier work
[17] = tested on: Bacillus subtilis ATCC 6633; settings: Gram + bacteria; cited from earlier work
[18] = tested on: Saccharomyces cerevisiae ATCC 9763; settings: Yeast; cited from earlier work
[19] = tested on: Lactobacillus delbrueckii ssp lactis CECT 372; settings: Gram + bacteria; cited from earlier work
[20] = tested on: Alcaligenes faecalis ATCC 8750; settings: Gram − bacteria; cited from earlier work
[21] = tested on: Micrococcus luteus ATCC 9631; settings: Gram + bacteria; cited from earlier work
[22] = rats; cited from earlier work
[23] = tested on: Penicillium funiculosum CECT 2914; settings: Fungi; cited from earlier work
S. typhimurium LPS = test: Endotoxin deactivation as a function of LAE concentration, LAL assay; assay type: biochemical, Salmonella typhimurium; settings: for CONCENTRATION Endotoxin: S. typhimurium LPS 10 μg/ml, 2 hours at 37° C., control without LAE 17000
Experimental: The 1 mg/ml stock solution of S. typhimurium LPS was prepared using the commercially available LPS obtained from the List Biological Laboratories, Inc. (cat #225). The 20 μg/ml solution of LPS was prepared by serially diluting the stock. All the LPS solutions were kept at refrigeration temperatures according to the instructions provided by the manufacturer.
The solutions of LAE prepared were used in the experiment. For the procedure, 500 μl of 20 μg/ml of endotoxins were mixed with 500 μl of LAE solution (10, 20, 40, 60 and 100 μg/ml) in glass reaction tubes, giving the final concentration of LPS, 10 μg/ml and the concentration range of LAE, 5-50 μg/ml. As a negative control, LPS was mixed with 1 mg/ml aqueous solution of propylene glycol. The mixture was incubated for 2 hours at 37° C. Each sample was serially diluted using the LAL reagent water to be assayed for the endotoxin activity.

[24] = tested on: Bordetella bronchiseptica ATCC 4617; settings: Gram − bacteria; cited from earlier work
[25] = tested on: Staphylococcus aureus ATCC 6538; settings: Gram + bacteria; cited from earlier work
[26] = tested on: Gliocadium virens ATCC 4645; settings: Fungi; cited from earlier work
[27] = animals and humans; cited from earlier work
[28] = tested on: Enterobacter aerogenes CECT 689; settings: Gram − bacteria; cited from earlier work
[29] = tested on: Klebsiella pneumoniae var pneumoniae CECT 178; settings: Gram − bacteria; cited from earlier work
[30] = tested on: Chaetonium globosum ATCC 6205; settings: Fungi; cited from earlier work
[31] = tested on: Leuconostoc mesenteroides CETC 912; settings: Gram + bacteria; cited from earlier work
[32] = tested on: endotoxins produced by E. coli O113:H10; test: Endotoxin deactivation by LAE, LAL assay (turbidimetric, pyrochrome); assay type: biochemical; settings: E. coli O113:H10 endotoxin 12.5 μg/ml, incubated two hours at 37° C., control without LAE 120
Experimental: Turbidimetric LAL test was conducted according to the instructions provided by the manufacturer (Pyrotell-T, The associates of Cape Cod, Inc.). The standard curve was built based on 300, 30, 3, 0.3, 0.03 and 0.003 EU/ml. The same endotoxin in concentrations of 12.5 μg/ml was used in the experiment.
LAE was applied in concentrations of 0, 5, 10, 20, 30, 50 μg/ml to assess this compound's ability to deactivate endotoxins. LAL reagent water (LRW) was used to make all the endotoxin dilutions including the standards. MIRENAT-CF is a 10.5% solution of LAE in Propylene glycol, so the dilutions of MIRENAT-CF were initially made in propylene glycol, so that concentration of LAE was kept as the only variable. For the presumptive deactivation procedure, the endotoxin was incubated together with LAE for two hours at 37° C. The turbidimetric assay was conducted two times using the onset time for OD405=0.05. The pyrochrome assay was conducted once using the same template on plates.

## ethyl ester of the lauramide of the arginine monohydrochloride [LAE]
[1]
  M.I.C.: 2 ppm
[2]
  M.I.C.: 10 ppm
[3]
  M.I.C.: 16 ppm
[4]
  M.I.C.: 32 ppm
[5]
  M.I.C.: 64 ppm
[6]
  M.I.C.: 16 ppm
[7]
  M.I.C.: 64 ppm
[8]
  M.I.C.: 32 ppm
[9]
  M.I.C.: 128 ppm
[10]
  M.I.C.: 32 ppm
[11]
  M.I.C.: 16 ppm
[12]
  M.I.C.: 32 ppm
[13]
  M.I.C.: 64 ppm
[14]; 2 μg LAE/ml without LPS, similar to the blank
  release of peptidase by LAE per se: less than 300 units
[14]; LAE 2 μg/ml added to LPS, both doses of LPS tested (10 and 20 μg/ml)
  peptidase response to LPS: significant reduction of peptidase response
[14]; LPS 0 μg/ml, blank sample 400
  Peptidase released: 296 Fluorescence units
[14]; LPS 10 μg/ml, LPS alone 900
  Peptidase released: 580 Fluorescence units
[14]; LPS 20 μg/ml, LPS alone 1200
  Peptidase released: 655 Fluorescence units
[14]; LPS 10 μg/ml pre-mixed with 2 μg/ml of LAE
  reduction of the toxicity of LPS (measured by fluorescence release): 35.6%
[14]; LPS 20 μg/ml pre-mixed with 2 μg/ml of LAE
  reduction of the toxicity of LPS (measured by fluorescence release): 45.4%
[15]
  M.I.C.: 16 ppm
[16]
  M.I.C.: 32 ppm
[17]
  M.I.C.: 16 ppm
[18]
  M.I.C.: 32 ppm
[19]
  M.I.C.: 16 ppm
[20]
  M.I.C.: 64 ppm
[21]
  M.I.C.: 128 ppm
[22]
  absorption and metabolism: fast absorption and metabolisation into naturally-occurring amino acids and the fatty acid lauric acid
[23]
  M.I.C.: 16 ppm
S. typhimurium LPS; LAE 5 μg/ml (as MIRENAT-CF)
  CONCENTRATION Endotoxin: 4000 EU/ml × 10E3
S. typhimurium LPS; LAE 10 μg/ml (as MIRENAT-CF)
  CONCENTRATION Endotoxin: 3995 EU/ml × 10E3
S. typhimurium LPS; LAE 20 μg/ml (as MIRENAT-CF)
  CONCENTRATION Endotoxin: 3000 EU/ml × 10E3
S. typhimurium LPS; LAE 30 μg/ml (as MIRENAT-CF)
  CONCENTRATION Endotoxin: 4000 EU/ml × 10E3
S. typhimurium LPS; LAE 50 μg/ml (as MIRENAT-CF)
  CONCENTRATION Endotoxin: 2500 EU/ml × 10E3
S. typhimurium LPS; LAE concentration range 5-50 μg/ml
  dose response of the deactivation effect: does not follow a dose response
S. typhimurium LPS; LAE in concentrations of 5-50 μg/ml
  effect on the activity of S. typhimurium endotoxins: significantly decreased
[24]
  M.I.C.: 128 ppm
[25]
  M.I.C.: 32 ppm
[26]
  M.I.C.: 32 ppm
[27]
  toxicity: completely harmless to animals and humans
[28]
  M.I.C.: 32 ppm
[29]
  M.I.C.: 32 ppm
[30]
  M.I.C.: 16 ppm
[31]
  M.I.C.: 32 ppm
[32]; LAE 10 μg/ml
  CONCENTRATION Endotoxin: 80 EU/ml × 10E3
[32]; LAE 50 μg/ml
  CONCENTRATION Endotoxin: 61 EU/ml × 10E3
